What all share (assay type): biochemical
Holding throughout (settings): number in parentheses within cell

One experiment has as its target T1, DAT (Rattus norvegicus, UniProt P23977).
T1 construct: from tissue; host or cells: rat brain
Kind of experiment: DAT uptake inhibition, [3H]DA, rat brain.

A further experiment deals with T2, SERT (Rattus norvegicus, UniProt P31652).
T2 construct: from tissue; host or cells: rat brain
As to the kind of experiment: SERT uptake inhibition, [3H]-5-HT, rat brain.

The target of a further experiment is T3, NET (Rattus norvegicus, UniProt Q63380).
T3 construct: from tissue; host or cells: rat brain
T3 sequence (Q63380 1-617): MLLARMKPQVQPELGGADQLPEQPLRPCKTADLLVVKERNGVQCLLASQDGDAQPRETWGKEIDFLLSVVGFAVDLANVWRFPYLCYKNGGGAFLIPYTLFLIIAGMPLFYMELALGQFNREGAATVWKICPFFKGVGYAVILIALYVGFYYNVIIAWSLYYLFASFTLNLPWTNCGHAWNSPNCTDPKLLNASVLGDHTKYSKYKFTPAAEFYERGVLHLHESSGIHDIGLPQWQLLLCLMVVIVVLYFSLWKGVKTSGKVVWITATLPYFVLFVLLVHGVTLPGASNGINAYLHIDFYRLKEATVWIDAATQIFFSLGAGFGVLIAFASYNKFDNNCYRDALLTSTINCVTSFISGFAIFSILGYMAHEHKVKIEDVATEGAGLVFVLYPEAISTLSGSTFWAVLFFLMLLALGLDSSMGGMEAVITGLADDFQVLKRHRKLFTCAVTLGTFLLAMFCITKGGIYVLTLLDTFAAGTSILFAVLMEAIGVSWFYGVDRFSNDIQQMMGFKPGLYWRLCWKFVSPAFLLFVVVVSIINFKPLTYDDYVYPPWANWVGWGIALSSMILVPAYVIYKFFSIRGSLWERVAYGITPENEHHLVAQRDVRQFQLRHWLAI
Kind of experiment: NET uptake inhibition, [3H]DA, rat brain.

Molecules are shown by their SMILES.

T1 sequence (P23977 whole entry): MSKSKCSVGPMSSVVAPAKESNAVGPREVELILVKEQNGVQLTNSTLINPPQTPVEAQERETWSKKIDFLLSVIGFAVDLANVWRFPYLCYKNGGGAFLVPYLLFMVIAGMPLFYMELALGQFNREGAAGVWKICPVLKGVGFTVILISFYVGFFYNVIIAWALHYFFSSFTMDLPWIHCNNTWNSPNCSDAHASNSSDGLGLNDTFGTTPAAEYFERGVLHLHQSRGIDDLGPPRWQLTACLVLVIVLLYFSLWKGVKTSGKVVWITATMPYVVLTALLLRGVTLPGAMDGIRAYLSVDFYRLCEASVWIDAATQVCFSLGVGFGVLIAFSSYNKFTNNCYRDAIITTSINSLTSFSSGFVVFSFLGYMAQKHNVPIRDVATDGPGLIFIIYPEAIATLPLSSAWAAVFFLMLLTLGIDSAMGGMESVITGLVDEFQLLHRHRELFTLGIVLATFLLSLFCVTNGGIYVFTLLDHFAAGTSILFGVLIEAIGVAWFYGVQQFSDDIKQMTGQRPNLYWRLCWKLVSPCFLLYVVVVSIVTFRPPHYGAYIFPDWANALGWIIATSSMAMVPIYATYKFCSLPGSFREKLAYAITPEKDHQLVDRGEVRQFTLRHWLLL
T2 sequence (P31652 whole entry): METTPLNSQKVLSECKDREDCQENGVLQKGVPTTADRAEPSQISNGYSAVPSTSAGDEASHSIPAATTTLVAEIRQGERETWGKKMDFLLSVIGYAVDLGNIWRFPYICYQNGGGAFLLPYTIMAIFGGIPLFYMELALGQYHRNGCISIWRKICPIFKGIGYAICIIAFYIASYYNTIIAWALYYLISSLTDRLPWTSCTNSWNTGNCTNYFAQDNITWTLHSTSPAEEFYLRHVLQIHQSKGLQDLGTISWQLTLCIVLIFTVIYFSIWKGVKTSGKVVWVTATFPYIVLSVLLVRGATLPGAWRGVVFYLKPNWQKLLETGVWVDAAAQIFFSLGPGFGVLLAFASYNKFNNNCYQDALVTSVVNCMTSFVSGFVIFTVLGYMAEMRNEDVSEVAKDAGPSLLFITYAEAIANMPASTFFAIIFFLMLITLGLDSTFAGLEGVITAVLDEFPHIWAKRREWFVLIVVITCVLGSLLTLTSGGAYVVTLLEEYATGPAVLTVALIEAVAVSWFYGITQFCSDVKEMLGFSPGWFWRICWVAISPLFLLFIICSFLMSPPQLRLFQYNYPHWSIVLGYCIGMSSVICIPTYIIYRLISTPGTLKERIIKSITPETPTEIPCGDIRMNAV

One may read the Ki as a measure of affinity in units of concentration, obtained from inhibition or displacement. `c1ccc(C(c2ccccc2)[C@@H]2CC[C@H](NCc3ccc4occc4c3)CO2)cc1` [2a, D-484, (3S,6S)-6-benzhydryl-N-(benzofuran-5-ylmethyl)tetrahydro-2H-pyran-3-amine]: the results for the Ki at DAT, at SERT and at NET were 81.9 ± 17.9 nM, 0.71 ± 0.085 nM and 25.2 ± 5.3 nM, respectively.

For `c1ccc(C(c2ccccc2)[C@@H]2CC[C@H](NCc3ccc4cc[nH]c4c3)CO2)cc1` [2b, D-543], the Ki on DAT amounted to 56.3 ± 1.1 nM; on SERT, 13.6 ± 1.6 nM; at NET, 20.8 ± 4.6 nM.

`O[C@@H]1C[C@@H](C(c2ccccc2)c2ccccc2)OC[C@H]1NCc1ccc2occc2c1` [4a, D-485, (2S,4R,5R)-2-benzhydryl-5-((benzofuran-5-ylmethyl)amino)tetrahydro-2H-pyran-4-ol]: the Ki on DAT is 234 ± 11 nM; at SERT it was 2.68 ± 0.094 nM; at NET, 33.6 ± 18.7 nM.

As to `O[C@@H]1C[C@@H](C(c2ccccc2)c2ccccc2)OC[C@H]1NCc1ccc2cc[nH]c2c1` [4b, D-544, (2S,4R,5R)-5-(((1H-indol-6-yl)methyl)amino)-2-benzhydryltetrahydro-2H-pyran-4-ol], the figures for the Ki on DAT, on SERT and at NET were 64 ± 6.1 nM, 9.6 ± 2.57 nM and 10 ± 3.5 nM, respectively.

Regarding `COc1cc(CN[C@@H]2CO[C@H](C(c3ccccc3)c3ccccc3)C[C@H]2O)ccc1O` [4c, D-501, (2S,4R,5R)-2-benzhydryl-5-((4-hydroxy-3-methoxybenzyl)amino)tetrahydro-2H-pyran-4-ol], the Ki on DAT is 167 ± 36 nM.

Consider `COc1ccc(CN[C@@H]2CO[C@H](C(c3ccccc3)c3ccccc3)C[C@H]2O)cc1O` [4d, D-502, (2S,4R,5R)-2-benzhydryl-5-((3-hydroxy-4-methoxybenzyl)amino)tetrahydro-2H-pyran-4-ol], for which the figures for the inhibition constant (Ki) on DAT and at SERT were 58.6 ± 11.8 nM and 281 ± 37 nM, respectively.

Consider `COc1cc(O)cc(CN[C@@H]2CO[C@H](C(c3ccccc3)c3ccccc3)C[C@H]2O)c1` [4e, D-503, (2S,4R,5R)-2-benzhydryl-5-((3-hydroxy-5-methoxybenzyl)amino)tetrahydro-2H-pyran-4-ol], for which the Ki came to 209 ± 25 nM at DAT and 385 ± 42 nM on SERT.

`Oc1cc(O)cc(CN[C@@H]2CO[C@H](C(c3ccccc3)c3ccccc3)C[C@H]2O)c1` [4f, D-542, 5-((((3R,4R,6S)-6-benzhydryl-4-hydroxytetrahydro-2H-pyran-3-yl)amino)methyl)benzene-1,3-diol]: the Ki at DAT stood at 259 ± 44 nM; at SERT, 3020 nM; on NET it was 152 ± 29 nM.

Take `COc1cccc(CN[C@@H]2CO[C@H](C(c3ccccc3)c3ccccc3)C[C@H]2O)c1` [4g, D-523, (2S,4R,5R)-2-benzhydryl-5-((3-methoxybenzyl)amino)tetrahydro-2H-pyran-4-ol]: the figures for the inhibition constant (Ki) on DAT, on SERT and on NET were 376 ± 68 nM, 27.2 ± 3 nM and 5.85 ± 1.27 nM, respectively.

For `COc1ccc(CN[C@@H]2CO[C@H](C(c3ccc(F)cc3)c3ccc(F)cc3)C[C@H]2O)cc1` [6a, D-473, (2S,4R,5R)-2-(bis(4-fluorophenyl)methyl)-5-((4-methoxybenzyl)amino)tetrahydro-2H-pyran-4-ol], the results for the inhibition constant Ki at DAT, on SERT and at NET were 13.3 ± 2 nM, 46.7 ± 17 nM and 13.2 ± 3.5 nM, respectively.

With `O[C@@H]1C[C@@H](C(c2ccc(F)cc2)c2ccc(F)cc2)OC[C@H]1NCc1ccc2c(c1)OCO2` [6b, D-506, (2S,4R,5R)-5-((benzo[d][1,3]dioxol-5-ylmethyl)amino)-2-(bis(4-fluorophenyl)methyl)tetrahydro-2H-pyran-4-ol], the Ki on DAT stood at 37 ± 7.5 nM.

On to `O[C@@H]1C[C@@H](C(c2ccc(F)cc2)c2ccc(F)cc2)OC[C@H]1NCc1ccc2c(c1)CCO2` [6c, D-507, (2S,4R,5R)-2-(bis(4-fluorophenyl)methyl)-5-(((2,3-dihydrobenzofuran-5-yl)methyl)amino)tetrahydro-2H-pyran-4-ol], for which the Ki at DAT was 17 nM; at SERT it was 54 ± 7.8 nM; on NET it was 25.8 ± 5 nM.

On to `O[C@@H]1C[C@@H](C(c2ccc(F)cc2)c2ccc(F)cc2)OC[C@H]1NCc1ccc2occc2c1` [6d, D-508, (2S,4R,5R)-5-((benzofuran-5-ylmethyl)amino)-2-(bis(4-fluorophenyl)methyl)tetrahydro-2H-pyran-4-ol], for which the values for the Ki at DAT, on SERT and on NET were 29.3 ± 2.4 nM, 68.4 ± 11.4 nM and 26.5 ± 6.6 nM, respectively.

With `COc1cccc(CN[C@@H]2CO[C@H](C(c3ccc(F)cc3)c3ccc(F)cc3)C[C@H]2O)c1` [6e, D-524, (2S,4R,5R)-2-(bis(4-fluorophenyl)methyl)-5-((3-methoxybenzyl)amino)tetrahydro-2H-pyran-4-ol], the Ki was 56.8 ± 7.6 nM at DAT and 129 ± 25 nM at SERT.

Consider `COc1cc(O)cc(CN[C@@H]2CO[C@H](C(c3ccc(F)cc3)c3ccc(F)cc3)C[C@H]2O)c1` [6g, D-526, (2S,4R,5R)-2-(bis(4-fluorophenyl)methyl)-5-((3-hydroxy-5-methoxybenzyl)amino)tetrahydro-2H-pyran-4-ol], for which the Ki at DAT was found to be 25.6 ± 5.8 nM; at SERT, 577 ± 94 nM.

`COc1cc(CN[C@@H]2CO[C@H](C(c3ccc(F)cc3)c3ccc(F)cc3)C[C@H]2O)ccc1O` [6h, D-527, (2S,4R,5R)-2-(bis(4-fluorophenyl)methyl)-5-((4-hydroxy-3-methoxybenzyl)amino)tetrahydro-2H-pyran-4-ol]: the Ki at DAT worked out at 8.94 ± 2.2 nM; on SERT, 107 ± 11 nM.

In the case of `COc1ccc(CN[C@@H]2CO[C@H](C(c3ccc(F)cc3)c3ccc(F)cc3)C[C@H]2O)cc1O` [6i, D-528, (2S,4R,5R)-2-(bis(4-fluorophenyl)methyl)-5-((3-hydroxy-4-methoxybenzyl)amino)tetrahydro-2H-pyran-4-ol], the Ki came to 7.94 ± 0.66 nM at DAT and 367 ± 52 nM on SERT.

As to `Nc1ccc(CN[C@@H]2CO[C@H](C(c3ccc(F)cc3)c3ccc(F)cc3)C[C@H]2O)cc1` [6k, D-529, (2S,4R,5R)-5-((4-aminobenzyl)amino)-2-(bis(4-fluorophenyl)methyl) tetrahydro-2H-pyran-4-ol], the values for the inhibition constant (Ki) on DAT and on SERT were 24.5 ± 1.2 nM and 339 ± 39 nM, respectively.

In the case of `CCNc1ccc(CN[C@@H]2CO[C@H](C(c3ccc(F)cc3)c3ccc(F)cc3)C[C@H]2O)cc1` [6m, D-530, (2S,4R,5R)-2-(bis(4-fluorophenyl)methyl)-5-((4-(ethylamino)benzyl)amino) tetrahydro-2H-pyran-4-ol], at SERT, the inhibition constant Ki amounted to 320 ± 40 nM.

Turning to `Oc1ccc(CN[C@@H]2CO[C@H](C(c3ccc(F)cc3)c3ccc(F)cc3)C[C@H]2O)cc1F` [6n, D-531, (2S,4R,5R)-2-(bis(4-fluorophenyl)methyl)-5-((3-fluoro-4-hydroxybenzyl)amino) tetrahydro-2H-pyran-4-ol], on SERT, the Ki came to 334 ± 54 nM.

Turning to `CN(C)c1ccc(CN[C@@H]2CO[C@H](C(c3ccc(F)cc3)c3ccc(F)cc3)C[C@H]2O)cc1` [6o, D-536, (2S,4R,5R)-2-(bis(4-fluorophenyl)methyl)-5-((4-(dimethylamino)benzyl)amino)tetrahydro-2H-pyran-4-ol], the inhibition constant (Ki) came to 41.3 ± 9.7 nM at DAT, 144 ± 26 nM at SERT and 56.6 ± 5.2 nM at NET.

Consider `COc1ccc(CN[C@@H]2CO[C@H](C(c3ccc(F)cc3)c3ccc(F)cc3)C[C@H]2O)cn1` [6p, D-537, (2S,4R,5R)-2-(bis(4-fluorophenyl)methyl)-5-(((6-methoxypyridin-3-yl)methyl)amino)tetrahydro-2H-pyran-4-ol], for which the results for the Ki on DAT, on SERT and at NET were 20.1 ± 5.3 nM, 258 ± 26 nM and 28.4 ± 4 nM, respectively.

(Values after US9458124B2, “Substituted pyran derivatives” (Wayne State University, priority 2013, dated 2016).)
